Assay results as given in patent publication US20250388544A1, “HETEROAROMATIC INHIBITORS OF ASTACIN PROTEINASES” (VIVORYON THERAPEUTICS N.V., priority 2019, published 2025).
pIC50, pKi: −log10 of the molar value.

What was measured:
Assay type in all cases: biochemical
[1] = target: T1, hMeprin α (Homo sapiens, UniProt Q16819); assay: Enzymatic assay, quenched peptide substrate cleavage, method A; conditions: geometric mean (geometric SD factor in parentheses), read-out: Meprin alpha IC50
T1 sequence (Q16819 66-746): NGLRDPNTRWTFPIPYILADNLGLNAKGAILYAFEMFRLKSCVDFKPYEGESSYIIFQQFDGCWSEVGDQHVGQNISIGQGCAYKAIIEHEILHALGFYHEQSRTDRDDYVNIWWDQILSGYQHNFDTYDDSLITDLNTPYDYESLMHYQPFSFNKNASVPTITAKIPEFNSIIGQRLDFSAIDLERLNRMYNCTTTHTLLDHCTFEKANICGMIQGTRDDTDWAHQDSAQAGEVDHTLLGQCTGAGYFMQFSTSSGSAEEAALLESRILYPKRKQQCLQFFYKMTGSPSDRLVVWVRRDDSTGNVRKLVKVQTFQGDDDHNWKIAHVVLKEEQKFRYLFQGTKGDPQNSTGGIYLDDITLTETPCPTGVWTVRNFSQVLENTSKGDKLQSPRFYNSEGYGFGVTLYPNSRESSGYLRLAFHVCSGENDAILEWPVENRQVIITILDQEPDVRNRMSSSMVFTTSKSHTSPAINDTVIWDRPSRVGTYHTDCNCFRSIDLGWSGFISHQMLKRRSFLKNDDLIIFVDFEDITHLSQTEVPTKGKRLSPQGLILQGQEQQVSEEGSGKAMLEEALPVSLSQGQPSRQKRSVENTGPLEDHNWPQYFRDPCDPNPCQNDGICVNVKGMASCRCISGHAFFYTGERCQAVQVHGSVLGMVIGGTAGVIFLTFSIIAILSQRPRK
Procedure: (§1) The determination of enzymatic activity was based on the cleavage of internally quenched peptide substrates. A typical assay of 250 μl total volume measured in black 96 well plates consisted of 100 μl buffer, 50 μl enzyme at a final concentration of 5e-8 M to 2e-10 M, 50 μl substrate (0.15 to 80 μM, in buffer, 0.5% DMSO) and 50 μl inhibitor solution (in buffer, 1% DMSO). In case of 125 μl assay volume (black 96 half area well plates) all volumes were cut in half. Enzymatic activity of ADAMs was measured in 384 well plates with 60 μl total assay volume consisting of 20 μl inhibitor, 20 μl buffer, 10 μl enzyme and 10 μl substrate.
(§2) Based on method B Ki^(app) values were determined using Morrison's equation. All measurements were performed using a fluorescence plate reader (FLUOSTAR OPTIMA, BMG Labtech) at 30° C. The kinetic parameters were determined at least in duplicates on separate days. The excitation/emission wavelength was 340/420 nm. The kinetic data was evaluated using GRAFIT software (version 7.0.3, Erithacus Software).

[2] = target: T2, hMeprin β (Homo sapiens, UniProt Q16820); assay: as above; conditions: geometric mean (geometric SD factor in parentheses), read-out: Meprin beta IC50
T2 sequence (Q16820 62-701): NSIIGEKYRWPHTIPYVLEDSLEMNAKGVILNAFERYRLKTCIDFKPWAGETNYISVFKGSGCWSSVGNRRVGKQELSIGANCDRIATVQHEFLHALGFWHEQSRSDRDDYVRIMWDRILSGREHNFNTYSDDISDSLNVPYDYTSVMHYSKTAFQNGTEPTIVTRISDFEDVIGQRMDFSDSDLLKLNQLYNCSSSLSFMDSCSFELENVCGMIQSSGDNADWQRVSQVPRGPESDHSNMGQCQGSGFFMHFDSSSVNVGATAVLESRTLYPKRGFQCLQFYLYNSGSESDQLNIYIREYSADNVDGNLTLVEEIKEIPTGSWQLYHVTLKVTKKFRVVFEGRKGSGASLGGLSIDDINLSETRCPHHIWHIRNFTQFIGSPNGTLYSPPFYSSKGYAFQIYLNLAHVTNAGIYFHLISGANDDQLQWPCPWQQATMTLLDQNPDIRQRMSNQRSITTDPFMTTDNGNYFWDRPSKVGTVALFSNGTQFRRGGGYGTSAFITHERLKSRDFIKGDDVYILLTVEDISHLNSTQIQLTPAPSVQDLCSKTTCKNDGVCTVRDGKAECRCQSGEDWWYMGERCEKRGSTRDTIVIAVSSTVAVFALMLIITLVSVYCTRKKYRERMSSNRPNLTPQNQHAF
Procedure: as §1, §2

[3] = target: T1, hMeprin α; assay: Enzymatic assay, quenched peptide substrate cleavage, method B; conditions: geometric mean (geometric SD factor in parentheses); for pKi: Morrison's equation, read-out: Meprin alpha Ki(app); for pIC50: read-out: Meprin alpha IC50
Procedure: as §1, §2

[4] = target: T2, hMeprin β; assay: as above; conditions: geometric mean (geometric SD factor in parentheses); for pKi: Morrison's equation, read-out: Meprin beta Ki(app); for pIC50: read-out: Meprin beta IC50
Procedure: as §1, §2

Compound	pIC50 [1]	pIC50 [2]	pKi [3]	pIC50 [3]	pKi [4]	pIC50 [4]
O=C(Cc1c(-c2ccccc2)nnn1-c1ccccc1)NO [Example 11, 2-(3,5-Diphenyltriazol-4-yl)ethanehydroxamic acid]	7.96	5.84				
O=C(Cc1c(-c2ccccc2)ncn1-c1ccccc1)NO [Example 12, 2-(3,5-Diphenylimidazol-4-yl)ethanehydroxamic acid]	8.70	6.31				
O=C(CCn1c(-c2ccccc2)nc2ccccc21)NO [Example 14, 3-(2-Phenylbenzimidazol-1-yl)propanehydroxamic acid]	5.95	4.55	6.15	6.15	4.50	4.49
O=C(Cn1c(-c2ccccc2)nc2cccnc21)NO [Example 23, 2-(2-Phenylimidazo[4,5-b]pyridin-3-yl)ethane-hydroxamic acid]	6.56	5.34				
O=C(CCn1c(-c2ccccc2)cc2ccccc21)NO [Example 26, 3-(2-Phenylindol-1-yl)propanehydroxamic acid]	6.32	4.87				
O=C(Cc1c(-c2ccccc2)[nH]c2ccccc12)NO [Example 27, 2-(2-Phenyl-1H-indol-3-yl)ethanehydroxamic acid]	6.98	5.92				
O=C(Cc1c(-c2ccc(Cl)c(O)c2F)nc2ccccn12)NO [Example 28, 2-[2-(4-Chloro-2-fluoro-3-hydroxy-phenyl)imidazo-[1,2-a]pyridin-3-yl]ethanehydroxamic acid]	6.87	7.64	7.05	7.04	7.10	7.09
O=C(CNc1c(-c2ccccc2)nc2ccccn12)NO [Example 29, 2-[(2-Phenylimidazo[1,2-a]pyridin-3-yl)amino]-ethanehydroxamic acid]	6.10	5.15				
O=C(CNc1c(-c2ccc(C(=O)O)cc2)nc2ccccn12)NO [Example 30, 4-[3-[[2-(Hydroxyamino)-2-oxo-ethyl]amino]-imidazo[1,2-a]pyridin-2-yl]benzoic acid]	5.64	6.75				
O=C(CNc1c(-c2cccc(C(=O)O)c2)nc2ccccn12)NO [Example 31, 3-[3-[[2-(Hydroxyamino)-2-oxo-ethyl]amino]-imidazo[1,2-a]pyridin-2-yl]benzoic acid]	6.16	6.67				
O=C(CNc1c(-c2ccc3c(c2)OCCO3)nc2ccccn12)NO [Example 32, 2-[[2-(2,3-Dihydro-1,4-benzodioxin-6-yl)imidazo-[1,2-a]pyridin-3-yl]amino]ethanehydroxamic acid]	6.18	5.50				
O=C(CNc1c(-c2ccccc2)nc2c(C(=O)O)cccn12)NO [Example 33, 3-[[2-(Hydroxyamino)-2-oxo-ethyl]amino]-2-phenyl-imidazo[1,2-a]pyridine-8-carboxylic acid]	5.17	5.51				
O=C(Cc1c2ccccc2nn1-c1ccccc1)NO [Example 34, 2-(2-Phenylindazol-3-yl)ethanehydroxamic acid]	6.61	5.47				
Cn1nc(-c2ccccc2)c(CC(=O)NO)c1-c1ccccc1 [Example 35, 2-(1-Methyl-3,5-diphenyl-pyrazol-4-yl)ethanehydroxamic acid]	8.05	5.91				
O=C(Cc1c(-c2ccccc2)nn(-c2ccccc2)c1-c1ccccc1)NO [Example 36, 2-(1,3,5-Triphenylpyrazol-4-yl)ethanehydroxamic acid]	7.77	5.62				
O=C(Cc1c(-c2ccccc2)nn(-c2ccc(C(=O)O)cc2)c1-c1ccccc1)NO [Example 37, 4-[4-[2-(Hydroxyamino)-2-oxo-ethyl]-3,5-diphenyl-pyrazol-1-yl]benzoic acid]	7.68	6.81				
O=C(Cc1c(-c2ccccc2)nn(-c2cccc(C(=O)O)c2)c1-c1ccccc1)NO [Example 38, 3-[4-[2-(Hydroxyamino)-2-oxo-ethyl]-3,5-diphenyl-pyrazol-1-yl]benzoic acid]	7.80	7.00				
O=C(Cc1c(-c2ccccc2)nn(Cc2ccccc2)c1-c1ccccc1)NO [Example 39, 2-(1-Benzyl-3,5-diphenyl-pyrazol-4-yl)ethanehydroxamic acid]	8.70	6.60				
